Measured values reported in patent US5837839A, “DNA coding sequences for mevalonate Pyrophosphate decarboxylase” (Novartis Finance Corporation, priority 1996, dated 1998).

How the values were obtained:
[1] = system: chicken liver MPD (mevalonate pyrophosphate decarboxylase); conditions: pseudo-first order kinetics; ATP and MevPP protect against inactivation; cited from earlier work
[2] = molecular target: T1, partially purified human liver MPD (mevalonate pyrophosphate decarboxylase) (Homo sapiens, UniProt P53602); assay: Inhibition of partially purified human liver MPD by phenylglyoxal; assay type: biochemical; conditions: partially purified enzyme; no concentration stated
T1 construct: from tissue; host or cells: human liver
T1 sequence (P53602 1-400): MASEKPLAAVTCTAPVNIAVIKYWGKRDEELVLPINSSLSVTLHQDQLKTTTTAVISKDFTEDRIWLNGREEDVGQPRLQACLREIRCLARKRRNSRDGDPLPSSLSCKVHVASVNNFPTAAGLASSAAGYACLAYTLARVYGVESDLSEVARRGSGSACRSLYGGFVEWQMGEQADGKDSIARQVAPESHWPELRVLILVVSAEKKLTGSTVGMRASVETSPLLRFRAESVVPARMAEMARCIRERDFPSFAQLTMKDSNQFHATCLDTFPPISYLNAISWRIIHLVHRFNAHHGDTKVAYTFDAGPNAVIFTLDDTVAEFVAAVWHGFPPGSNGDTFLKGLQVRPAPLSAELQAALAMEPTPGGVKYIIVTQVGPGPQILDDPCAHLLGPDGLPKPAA
Source text: This agrees with the work of Jabalquinto et al., (1983) Arch. Biochem. Biophys. […] They concluded that a single arginine is near the binding site of ATP and MevPP in the chicken liver enzyme. To this end, the Arg27Lys and Arg153Lys mutants were made using the AAA lysine codon triplet and a single-stranded DNA template isolated from pO-3. These mutated cDNAs were subcloned into pET14-b and expressed like p11-4 as described above. […] The Arg27Lys mutant appears to produce lower activity compared to the parent plasmid ([…]) from which it was derived, but this may not be a significant difference. […] Antisera against MPD for the Westerns was made with material expressed in E. coli from plasmid p11-4.
Cell pellets from the various expression systems were sonicated in homogenization buffer (20 mM Tris/HCl pH 7.5, 15 mM EDTA, 15 mM EGTA, 100 μM Leupeptin, 0.75 mg/l Aprotinin, 0.1 mM PMSF) and assayed directly for enzyme activity and protein concentration. Activity was measured as the conversion of labelled mevalonate pyrophosphate into isopentenyl pyrophosphate. […] 2 ml of Econofluor-2 (New England Nuclear) was added to the assay mixture the sample was capped, shaken, and counted on a scintillation counter. Because of the organic nature of the scintillation fluid, dephosphorylated product (isopentenyl) is solubilized and counted whereas dephosphorylated substrate (mevalonic acid) is not. […]

O=CC(=O)c1ccccc1 [phenylgloxal]
inactivation of MPD [1]: inactivated | inhibition of MPD [2]: inhibited
